From paper PMC7418559, “Synthesis and SAR of Tetracyclic Inhibitors of Protein Kinase CK2 Derived from Furocarbazole W16” (Chemmedchem, 2020)
Like-named read-outs stand apart in the source and are kept apart here.

Tests used:
[1] = biological target: T1, holoenzyme CK2α2β2 (Homo sapiens, UniProt P68400); experiment: Capillary electrophoresis (CE) assay, enzyme inhibition of the holoenzyme; assay type: biochemical; settings: for inhibition at 10 µM: read-out: Inhibition (%) of CK2α2β2
T1 construct: made in house; host or cells: E. coli BL21(DE3)
T1 sequence (P68400 whole entry): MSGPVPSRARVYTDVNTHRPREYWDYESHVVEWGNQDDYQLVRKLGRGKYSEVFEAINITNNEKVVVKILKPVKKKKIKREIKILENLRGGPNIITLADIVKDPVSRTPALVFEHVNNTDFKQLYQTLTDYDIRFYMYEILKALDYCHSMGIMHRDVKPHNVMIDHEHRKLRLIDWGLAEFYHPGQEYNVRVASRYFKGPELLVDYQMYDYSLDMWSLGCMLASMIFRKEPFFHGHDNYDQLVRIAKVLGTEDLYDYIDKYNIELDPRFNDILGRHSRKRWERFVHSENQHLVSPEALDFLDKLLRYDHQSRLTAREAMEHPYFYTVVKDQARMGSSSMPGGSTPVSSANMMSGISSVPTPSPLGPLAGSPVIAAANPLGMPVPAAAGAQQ
Procedure: In this assay, the decapeptide […], a known class I substrate suitable for assaying the kinase activity of both the CK2 holoenzyme and the catalytically active CK2 subunits,50, 58 was reacted with ATP in the presence of enzyme, which transfers a phosphate group to Ser7 of the decapeptide. Due to the additional negative charge of the phosphate group, the decapeptide and the phosphorylated decapeptide can be separated by CE.
Enzymatic activities with or without inhibitors were determined for the holoenzyme (CK2α2β2), the CK2α subunit, and the mutated CK2α′ ^C336S subunit by a capillary electrophoresis assay as described before.59 For this purpose, CK2α as well as (CK2α2β2) holoenzyme were purified after recombinant expression in E. coli BL21(DE3) and purified according the protocol of Grankowski et al.62 The mutated CK2α′ ^C336S subunit was purified by Ni‐NTA affinity chromatography using an N‐terminally attached His6 tag. […] For both CK2α subunits an assay buffer containing 100 mM NaCl instead of 60 mM NaCl as for the holoenzyme, and 20 mM MgCl2 instead of 10 mM MgCl2 was applied. For the holoenzyme, 1 μg was added, whereas for CK2α and the mutated CK2α′ ^C336S subunit 0.25 μg was added each. For each compound inhibition was determined three times independently at an initial concentration of 10 μM and the mean value and the standard deviation (SD) were calculated.

[2] = biological target: T2, CK2α subunit (Homo sapiens, UniProt P68400); experiment: Capillary electrophoresis (CE) assay, enzyme inhibition of the CK2α subunit; assay type: biochemical; settings: for inhibition at 10 µM: read-out: Inhibition (%) of CK2α
T2 construct: made in house; host or cells: E. coli BL21(DE3)
T2 sequence (P68400 whole entry): as above
Excerpt: (§1) In this assay, the decapeptide […], a known class I substrate suitable for assaying the kinase activity of both the CK2 holoenzyme and the catalytically active CK2 subunits,50, 58 was reacted with ATP in the presence of enzyme, which transfers a phosphate group to Ser7 of the decapeptide. Due to the additional negative charge of the phosphate group, the decapeptide and the phosphorylated decapeptide can be separated by CE. […] The data on the inhibition of the kinase activities of CK2α2β2, CK2α subunit and mutated CK2α’ ^C336S subunit are summarized in Table 1.
(§2) Enzymatic activities with or without inhibitors were determined for the holoenzyme (CK2α2β2), the CK2α subunit, and the mutated CK2α′ ^C336S subunit by a capillary electrophoresis assay as described before.59 For this purpose, CK2α as well as (CK2α2β2) holoenzyme were purified after recombinant expression in E. coli BL21(DE3) and purified according the protocol of Grankowski et al.62 The mutated CK2α′ ^C336S subunit was purified by Ni‐NTA affinity chromatography using an N‐terminally attached His6 tag. Successful purification was controlled by SDS‐PAGE. Enzymatic activity was determined in the presence of 60 μM ATP and 114 μM of the substrate peptide […]. For both CK2α subunits an assay buffer containing 100 mM NaCl instead of 60 mM NaCl as for the holoenzyme, and 20 mM MgCl2 instead of 10 mM MgCl2 was applied. For the holoenzyme, 1 μg was added, whereas for CK2α and the mutated CK2α′ ^C336S subunit 0.25 μg was added each. For each compound inhibition was determined three times independently at an initial concentration of 10 μM and the mean value and the standard deviation (SD) were calculated.

[3] = biological target: T3, mutated CK2α’ ^C336S subunit (Homo sapiens, UniProt P19784, C336S); experiment: Capillary electrophoresis (CE) assay, enzyme inhibition of the mutated CK2α′ C336S subunit; assay type: biochemical; settings: for inhibition at 10 µM: read-out: Inhibition (%) of CK2α’ ^C336S
T3 construct: His6 (N); made in house
T3 sequence (P19784 1-350 C336S): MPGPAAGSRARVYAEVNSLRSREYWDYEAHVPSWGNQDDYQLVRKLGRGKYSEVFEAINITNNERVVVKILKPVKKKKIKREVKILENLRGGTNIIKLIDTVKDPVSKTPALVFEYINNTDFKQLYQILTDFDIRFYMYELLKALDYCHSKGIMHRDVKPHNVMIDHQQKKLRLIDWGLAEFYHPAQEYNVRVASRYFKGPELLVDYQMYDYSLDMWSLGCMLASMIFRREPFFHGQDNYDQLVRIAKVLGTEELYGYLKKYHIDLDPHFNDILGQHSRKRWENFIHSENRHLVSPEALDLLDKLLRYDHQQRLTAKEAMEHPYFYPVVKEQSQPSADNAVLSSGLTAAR
Excerpt: as §1, §2

[4] = biological target: T4, CK2α/CK2β interaction (CK2α^1−335 / fluorescently labeled CK2β^1−193) (Homo sapiens, UniProt P68400); settings: for Inhibition of CK2α/CK2β2 interaction K i: MST, global fit with K D = […] nM, mean±SEM of 2–4 experiments, prec.=precipitation, n.s.=not significant
T4 sequence (P68400 1-335): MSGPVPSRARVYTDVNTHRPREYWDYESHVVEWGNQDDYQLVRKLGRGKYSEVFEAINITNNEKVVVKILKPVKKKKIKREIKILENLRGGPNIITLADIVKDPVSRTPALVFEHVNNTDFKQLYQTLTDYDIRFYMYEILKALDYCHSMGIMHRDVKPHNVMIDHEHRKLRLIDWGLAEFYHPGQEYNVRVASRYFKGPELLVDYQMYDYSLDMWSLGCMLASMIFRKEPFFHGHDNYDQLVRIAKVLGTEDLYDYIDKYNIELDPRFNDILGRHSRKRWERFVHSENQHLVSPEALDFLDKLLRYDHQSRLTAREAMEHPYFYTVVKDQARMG
Procedure: The inhibition of the interaction between the CK2α and the CK2β subunit was determined in a microscale thermophoresis (MST) assay.
To quantify the protein‐protein interaction in the presence of potential inhibitors, the investigated compounds were first dissolved in DMSO (2‐10 mM) and then 50‐fold diluted in ITC buffer (25 mM Tris‐HCl, 500 mM NaCl, pH 8.5) containing 0.1 % (v/v) Tween 20 to concentrations of either 40, 100 or 200 μM in 2 % (v/v) DMSO, i. e. twice the final concentrations: 20, 50 and 100 μM, respectively, in 1 % (v/v) DMSO, 0.05 % (v/v) Tween 20. […] MST traces were recorded at room temperature using a Nanotemper Monolith™ NT.115 Series Instrument with Monolith™ NT.115 standard treated capillaries and normalized to initial fluorescence (MO.Affinity Analysis, Nanotemper). […] Next, the statistical significance of the shift from K D to K D’ was determined for each compound by means of an unpaired Student's t test (Table S4). […] Data was analyzed and statistically evaluated with the program GraphPad Prism v.5.04 for Windows (GraphPad Software, San Diego, CA, USA).
a Shown are mean  SEM values of KD and KD’ for n separate experiments.
significant (n. s.), P > 0.05; *, P ≤ 0.05; **, P ≤ 0.01; ***, P ≤ 0.001; ****, P ≤ 0.0001. prec.

[5] = c=10 μM, CE assay, mean±SD of three experiments, n.s.=not significant

Row | SMILES | Inhibition (%) of CK2α [2, 5] | Inhibition (%) of CK2α’ ^C336S [3, 5] | Ki [4] | inhibition at 10 µM [1, 5] | Inhibition of CK2α/CK2β2 interaction K i [4] | further results
1 | CCOC(=O)C1c2[nH]c3ccccc3c2C(c2cc(OC)c(OC)c(OC)c2)C2C(=O)NC(=O)C12 (racemic) [(±)‐11] | n.s. | n.s. | 32 ± 17 µM | – | – | Inhibition (%) of CK2α2β2 [1, 5]: n.s.
2 | COc1cc([C@@H]2c3c([nH]c4ccccc34)[C@@H](C(=O)O)[C@@H]3C(=O)NC(=O)[C@H]23)cc(OC)c1OC (racemic) [(±)‐12] | n.s. | n.s. | 1.8 ± 0.8 µM | – | – | Inhibition (%) of CK2α2β2 [1, 5]: n.s.
3 | COc1cc([C@H]2c3c([nH]c4ccccc34)[C@H](C(=O)N3C(=O)OC[C@@H]3Cc3ccccc3)[C@H]3C(=O)OC(=O)[C@@H]23)cc(OC)c1OC [(+)‐3 c, (3aR,4R,10S,10aS)‐4‐{[(S)‐4‐Benzyl‐2‐oxo‐1,3‐oxazolidin‐3‐yl]carbonyl}‐10‐(3,4,5‐trimethoxyphenyl)‐4,5,10,10a‐tetrahydrofuro[3,4‐b]carbazole‐1,3(3aH)‐dione] | – | – | – | – | – | inhibition at 10 µM [1]: 66 ± 16%; inhibition at 10 µM [2]: 65 ± 4%; inhibition at 10 µM [3]: 52 ± 38%
4 | COc1cc([C@@H]2c3c([nH]c4ccccc34)[C@@H](C(=O)N3C(=O)OC[C@@H]3Cc3ccccc3)[C@@H]3C(=O)OC(=O)[C@H]23)cc(OC)c1OC [(+)‐3 d, (3aS,4S,10R,10aR)‐4‐{[(S)‐4‐Benzyl‐2‐oxo‐1,3‐oxazolidin‐3‐yl]carbonyl}‐10‐(3,4,5‐trimethoxyphenyl)‐4,5,10,10a‐tetrahydrofuro[3,4‐b]carbazole‐1,3(3aH)‐dione] | – | n.s. | – | – | – | inhibition at 10 µM [1]: 92 ± 7%; inhibition at 10 µM [2]: 43 ± 13%
5 | COc1cc([C@H]2c3c([nH]c4ccccc34)[C@@H](C(=O)N3C(=O)OC[C@@H]3Cc3ccccc3)[C@H]3C(=O)NC(=O)[C@@H]23)cc(OC)c1OC [(+)‐9 a] | n.s. | n.s. | – | 20 ± 4% | n.s. | –
6 | COc1cc([C@H]2c3c([nH]c4ccccc34)[C@@H](C(=O)N3C(=O)OC[C@H]3Cc3ccccc3)[C@H]3C(=O)NC(=O)[C@@H]23)cc(OC)c1OC [(+)‐9 b, (3aS,4S,10S,10aS)‐4‐{[(R)‐4‐Benzyl‐2‐oxo‐1,3‐oxazolidin‐3‐yl]carbonyl}‐10‐(3,4,5‐trimethoxyphenyl)‐4,5,10,10a‐tetrahydropyrrolo[3,4‐b]carbazole‐1,3(2H,3aH)‐dione] | n.s. | n.s. | 4.9 ± 0.8 µM | 12 ± 7% | – | –
7 | COc1cc([C@H]2c3c([nH]c4ccccc34)[C@H](C(=O)N3C(=O)OC[C@@H]3Cc3ccccc3)[C@H]3C(=O)NC(=O)[C@@H]23)cc(OC)c1OC [(+)‐9 c] | – | – | – | < 50% | prec. | –
8 | COc1cc([C@H]2c3c([nH]c4ccccc34)[C@H](C(=O)N3C(=O)OC[C@H]3Cc3ccccc3)[C@H]3C(=O)NC(=O)[C@@H]23)cc(OC)c1OC [(+)‐9 d] | – | – | – | < 50% | n.s. | –
9 | COc1cc([C@H]2c3c([nH]c4ccccc34)[C@@H](C(=O)N3C(=O)OC[C@@H]3Cc3ccccc3)[C@H]3C(=O)N(C)C(=O)[C@@H]23)cc(OC)c1OC [(+)‐10 a] | – | – | 2.8 ± 0.9 µM | 26 ± 7% | – | inhibition at 10 µM [2, 5]: 41 ± 11%; inhibition at 10 µM [3, 5]: 53 ± 15%
10 | COc1cc([C@H]2c3c([nH]c4ccccc34)[C@@H](C(=O)N3C(=O)OC[C@H]3Cc3ccccc3)[C@H]3C(=O)N(C)C(=O)[C@@H]23)cc(OC)c1OC [(+)‐10 b, (3aS,4S,10S,10aS)‐4‐{[(R)‐4‐Benzyl‐2‐oxo‐1,3‐oxazolidin‐3‐yl]carbonyl}‐2‐methyl‐10‐(3,4,5‐trimethoxyphenyl)‐4,5,10,10a‐tetrahydropyrrolo[3,4‐b]carbazole‐1,3(2H,3aH)‐dione] | n.s. | n.s. | 7.2 ± 1.5 µM | 31 ± 9% | – | –
11 | COc1cc([C@H]2c3c([nH]c4ccccc34)[C@H](C(=O)N[C@H](CO)Cc3ccccc3)[C@H]3C(=O)NC(=O)[C@@H]23)cc(OC)c1OC [(+)‐14 c] | – | – | – | < 50% | n.s. | –
12 | COc1cc([C@H]2c3c([nH]c4ccccc34)[C@H](C(=O)N[C@@H](CO)Cc3ccccc3)[C@H]3C(=O)NC(=O)[C@@H]23)cc(OC)c1OC [(+)‐14 d] | – | – | – | < 50% | n.s. | –
13 | COc1cc([C@@H]2c3c([nH]c4ccccc34)[C@@H](C(=O)N3C(=O)OC[C@H]3Cc3ccccc3)[C@@H]3C(=O)NC(=O)[C@H]23)cc(OC)c1OC [(‐)‐9 c] | – | – | – | < 50% | prec. | –
14 | COc1cc([C@@H]2c3c([nH]c4ccccc34)[C@H](C(=O)N3C(=O)OC[C@H]3Cc3ccccc3)[C@@H]3C(=O)OC(=O)[C@H]23)cc(OC)c1OC [(−)‐3 a] | – | – | – | – | – | inhibition at 10 µM [1]: 89 ± 3%; inhibition at 10 µM [2]: 73 ± 4%; inhibition at 10 µM [3]: 93 ± 2%
15 | COc1cc([C@@H]2c3c([nH]c4ccccc34)[C@H](C(=O)N3C(=O)OC[C@H]3Cc3ccccc3)[C@@H]3C(=O)NC(=O)[C@H]23)cc(OC)c1OC [(−)‐9 a] | n.s. | n.s. | 3.6 ± 0.6 µM | – | – | Inhibition (%) of CK2α2β2 [1, 5]: n.s.
16 | COc1cc([C@@H]2c3c([nH]c4ccccc34)[C@@H](C(=O)N3C(=O)OC[C@@H]3Cc3ccccc3)[C@@H]3C(=O)NC(=O)[C@H]23)cc(OC)c1OC [(−)‐9 d] | – | – | – | < 50% | n.s. | –
17 | COc1cc([C@@H]2c3c([nH]c4ccccc34)[C@@H](C(=O)N[C@H](CO)Cc3ccccc3)[C@@H]3C(=O)NC(=O)[C@H]23)cc(OC)c1OC [(−)‐14 d] | – | – | – | < 50% | n.s. | –
